Test results reported in patent US20240209028A1, “CNP COMPOUNDS” (priority 2022, published 2024).
Converted amounts (≈) assume the structure as drawn. Where two headings read alike, the source gives them in different places. Starred links: 1 amine or outer side, 2 acyl side, 3 side chain; linkers in the order of their positions; H or OH if unused. Positions of bridges follow the written chain, without caps; N, C: chain ends. Residues, ends and D or L forms follow the SMILES beside them. *: point of attachment. C18 diacid = O=C(O)CCCCCCCCCCCCCCCCC(=O)*; γGlu = O=C(O)[C@H](CCC(=O)[*:2])N[*:1]; AEEA = NCCOCCOCC(=O)O

Test: Solubility of CNP compounds at pH 4.0 and pH 6.5
Assay type: physicochemical
Procedure, shortened: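 Supernatant peptide concentration was quantified by CAD after overnight room-temperature equilibration of incompletely dissolved samples. Nominal loading was ≥4000-5000 nmol/mL. Media were pH 4.0 sodium acetate 5 mM/glycerol 250 mM, or pH 6.5 sodium phosphate 8 mM/glycerol 23 mg/mL reached by stepwise NaOH addition.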

[1] = 8 mM sodium phosphate, 23 mg/mL glycerol, pH 6.5, room temperature, read-out: Solubility at pH 6.5
[2] = 5 mM sodium acetate, 250 mM glycerol, pH 4.0, room temperature, read-out: Solubility at pH 4.0

SMILES | solubility [1] [mM] | solubility [2] [mM] | solubility (pH 6.5) [mM]
CC[C@H](C)[C@@H]1NC(=O)[C@H](CCCNC(=N)N)NC(=O)[C@H](CC(=O)O)NC(=O)[C@H](CC(C)C)NC(=O)[C@@H]2CCCN2C(=O)[C@H](CC(C)C)NC(=O)CNC(=O)[C@H](Cc2ccccc2)NC(=O)[C@@H](NC(=O)CNC(=O)[C@H](CCC(N)=O)NC(=O)[C@H](CO)NC(=O)CNC(=O)CNC(=O)[C@H](CCCCN)NC(=O)[C@H](CCCCN)NC(=O)[C@H](CCC(N)=O)NC(=O)[C@H](C)NC(=O)CNC(=O)[C@H](Cc2c[nH]cn2)NC(=O)[C@H](Cc2ccc(O)cc2)NC(=O)COCCOCCNC(=O)COCCOCCNC(=O)COCCOCCNC(=O)COCCOCCNC(=O)CC[C@H](NC(=O)CC[C@H](NC(=O)CCCCCCCCCCCCCCCCC(=O)O)C(=O)O)C(=O)O)CSSC[C@@H](C(=O)O)NC(=O)CNC(=O)[C@H](CC(C)C)NC(=O)CNC(=O)[C@H](CO)NC(=O)[C@H](CC(C)C)NC(=O)[C@H](CO)NC(=O)CNC1=O [compound 1434] ({C18 diacid-γGlu-γGlu-AEEA-AEEA-AEEA-AEEA}-YHGAQKKGGSQGCFGLPLDRIGSLSGLGC-OH; disulfide 13-29) | 8.51 (≈ 34.4 mg/mL) | – | –
CC[C@H](C)[C@@H]1NC(=O)[C@H](CCCNC(=N)N)NC(=O)[C@H](CC(=O)O)NC(=O)[C@H](CC(C)C)NC(=O)[C@@H]2CCCN2C(=O)[C@H](CC(C)C)NC(=O)CNC(=O)[C@H](Cc2ccccc2)NC(=O)[C@@H](NC(=O)CNC(=O)[C@H](CCC(N)=O)NC(=O)[C@H](CO)NC(=O)[C@H](CC(C)C)NC(=O)CNC(=O)[C@H](CCCCN)NC(=O)[C@H](CCCCN)NC(=O)[C@H](CCC(N)=O)NC(=O)[C@H](C)NC(=O)CNC(=O)[C@H](CCCCN)NC(=O)[C@H](Cc2ccc(O)cc2)NC(=O)[C@H](CCCCN)NC(=O)[C@H](CCCNC(=N)N)NC(=O)[C@H](C)NC(=O)COCCOCCNC(=O)COCCOCCNC(=O)CC[C@H](NC(=O)CC[C@H](NC(=O)CC[C@H](NC(=O)CC[C@H](NC(=O)CC[C@H](NC(=O)CCCCCCCCCCCCCCCCC(=O)O)C(=O)O)C(=O)O)C(=O)O)C(=O)O)C(=O)O)CSSC[C@@H](C(=O)O)NC(=O)CNC(=O)[C@H](CC(C)C)NC(=O)CNC(=O)[C@H](CO)NC(=O)[C@H](CC(C)C)NC(=O)[C@H](CO)NC(=O)CNC1=O [compound 1453] ({C18 diacid-γGlu-γGlu-γGlu-γGlu-γGlu-AEEA-AEEA}-ARKYKGAQKKGLSQGCFGLPLDRIGSLSGLGC-OH; disulfide 16-32) | 7.88 (≈ 35.8 mg/mL) | – | –
CC[C@H](C)[C@@H]1NC(=O)[C@H](CCCNC(=N)N)NC(=O)[C@H](CC(=O)O)NC(=O)[C@H](CC(C)C)NC(=O)[C@@H]2CCCN2C(=O)[C@H](CC(C)C)NC(=O)CNC(=O)[C@H](Cc2ccccc2)NC(=O)[C@@H](NC(=O)CNC(=O)[C@H](CCC(N)=O)NC(=O)[C@H](CO)NC(=O)[C@H](CO)NC(=O)CNC(=O)[C@H](CCCCN)NC(=O)[C@H](CCCCN)NC(=O)[C@H](CCC(N)=O)NC(=O)[C@H](C)NC(=O)CNC(=O)[C@@H]2CCCN2C(=O)[C@H](C)NC(=O)[C@H](CCC(N)=O)NC(=O)CNC(=O)[C@@H]2CCCN2C(=O)[C@H](C)NC(=O)[C@H](CCC(N)=O)NC(=O)CNC(=O)[C@@H]2CCCN2C(=O)[C@H](C)NC(=O)[C@H](CCC(N)=O)NC(=O)CNC(=O)COCCOCCNC(=O)COCCOCCNC(=O)CC[C@H](NC(=O)CCCCCCCCCCCCCCCCC(=O)O)C(=O)O)CSSC[C@@H](C(=O)O)NC(=O)CNC(=O)[C@H](CC(C)C)NC(=O)CNC(=O)[C@H](CO)NC(=O)[C@H](CC(C)C)NC(=O)[C@H](CO)NC(=O)CNC1=O [compound 1457] ({C18 diacid-γGlu-AEEA-AEEA}-GQAPGQAPGQAPGAQKKGSSQGCFGLPLDRIGSLSGLGC-OH; disulfide 23-39) | 8.96 (≈ 39.5 mg/mL) | – | –
CC[C@H](C)[C@@H]1NC(=O)[C@H](CCCNC(=N)N)NC(=O)[C@H](CC(=O)O)NC(=O)[C@H](CC(C)C)NC(=O)[C@@H]2CCCN2C(=O)[C@H](CC(C)C)NC(=O)CNC(=O)[C@H](Cc2ccccc2)NC(=O)[C@@H](NC(=O)CNC(=O)[C@H](CCCCN)NC(=O)[C@H](CO)NC(=O)[C@H](CC(C)C)NC(=O)CNC(=O)[C@H](CCCCN)NC(=O)[C@H](CCCCN)NC(=O)[C@H](CCC(N)=O)NC(=O)[C@H](C)NC(=O)CNC(=O)[C@H](CCCCN)NC(=O)[C@H](Cc2ccc(O)cc2)NC(=O)[C@H](CCCCN)NC(=O)[C@H](CCCNC(=N)N)NC(=O)[C@H](C)NC(=O)COCCOCCNC(=O)COCCOCCNC(=O)CC[C@H](NC(=O)CC[C@H](NC(=O)CC[C@H](NC(=O)CC[C@H](NC(=O)CC[C@H](NC(=O)CCCCCCCCCCCCCCCCC(=O)O)C(=O)O)C(=O)O)C(=O)O)C(=O)O)C(=O)O)CSSC[C@@H](C(=O)O)NC(=O)CNC(=O)[C@H](CC(C)C)NC(=O)CNC(=O)[C@H](CO)NC(=O)[C@H](CC(C)C)NC(=O)[C@H](CO)NC(=O)CNC1=O [compound 1470] ({C18 diacid-γGlu-γGlu-γGlu-γGlu-γGlu-AEEA-AEEA}-ARKYKGAQKKGLSKGCFGLPLDRIGSLSGLGC-OH; disulfide 16-32) | 0.595 (≈ 2.7 mg/mL) | 6.48 (≈ 29.4 mg/mL) | –
CC[C@H](C)[C@@H]1NC(=O)[C@H](CCCNC(=N)N)NC(=O)[C@H](CC(=O)O)NC(=O)[C@H](CC(C)C)NC(=O)[C@@H]2CCCN2C(=O)[C@H](CC(C)C)NC(=O)CNC(=O)[C@H](Cc2ccccc2)NC(=O)[C@@H](NC(=O)CNC(=O)[C@H](CO)NC(=O)[C@H](CO)NC(=O)[C@H](CC(C)C)NC(=O)CNC(=O)[C@H](CCCCN)NC(=O)[C@H](CCCCN)NC(=O)[C@H](CCC(N)=O)NC(=O)[C@H](C)NC(=O)CNC(=O)[C@H](CCCCN)NC(=O)[C@H](Cc2ccc(O)cc2)NC(=O)[C@H](CCCCN)NC(=O)[C@H](CCCNC(=N)N)NC(=O)[C@H](C)NC(=O)[C@H](CCC(N)=O)NC(=O)[C@@H]2CCCN2C(=O)[C@H](Cc2c[nH]cn2)NC(=O)[C@H](CCC(=O)O)NC(=O)[C@H](CCC(N)=O)NC(=O)COCCOCCNC(=O)COCCOCCNC(=O)CC[C@H](NC(=O)CC[C@H](NC(=O)CC[C@H](NC(=O)CC[C@H](NC(=O)CCCCCCCCCCCCCCCCC(=O)O)C(=O)O)C(=O)O)C(=O)O)C(=O)O)CSSC[C@@H](C(=O)O)NC(=O)CNC(=O)[C@H](CC(C)C)NC(=O)CNC(=O)[C@H](CO)NC(=O)[C@H](CC(C)C)NC(=O)[C@H](CO)NC(=O)CNC1=O [compound 1473] ({C18 diacid-γGlu-γGlu-γGlu-γGlu-AEEA-AEEA}-QEHPQARKYKGAQKKGLSSGCFGLPLDRIGSLSGLGC-OH; disulfide 21-37; C-terminus assumed) | 1.76 (≈ 8.8 mg/mL) | 5.83 (≈ 29.1 mg/mL) | –
CC[C@H](C)[C@@H]1NC(=O)[C@H](CCCNC(=N)N)NC(=O)[C@H](CC(=O)O)NC(=O)[C@H](CC(C)C)NC(=O)[C@@H]2CCCN2C(=O)[C@H](CC(C)C)NC(=O)CNC(=O)[C@H](Cc2ccccc2)NC(=O)[C@@H](NC(=O)CNC(=O)[C@H](CCCCN)NC(=O)[C@H](CO)NC(=O)[C@H](CC(C)C)NC(=O)CNC(=O)[C@H](CCCCN)NC(=O)[C@H](CCCCN)NC(=O)[C@H](CCC(N)=O)NC(=O)[C@H](C)NC(=O)CNC(=O)[C@H](CCCCN)NC(=O)[C@H](Cc2ccc(O)cc2)NC(=O)[C@H](CCCCN)NC(=O)[C@H](CCCNC(=N)N)NC(=O)[C@H](C)NC(=O)[C@H](CCC(N)=O)NC(=O)[C@@H]2CCCN2C(=O)[C@H](Cc2c[nH]cn2)NC(=O)[C@H](CCC(=O)O)NC(=O)[C@H](CCC(N)=O)NC(=O)COCCOCCNC(=O)COCCOCCNC(=O)CC[C@H](NC(=O)CC[C@H](NC(=O)CC[C@H](NC(=O)CC[C@H](NC(=O)CC[C@H](NC(=O)CCCCCCCCCCCCCCCCC(=O)O)C(=O)O)C(=O)O)C(=O)O)C(=O)O)C(=O)O)CSSC[C@@H](C(=O)O)NC(=O)CNC(=O)[C@H](CC(C)C)NC(=O)CNC(=O)[C@H](CO)NC(=O)[C@H](CC(C)C)NC(=O)[C@H](CO)NC(=O)CNC1=O [compound 1474] ({C18 diacid-γGlu-γGlu-γGlu-γGlu-γGlu-AEEA-AEEA}-QEHPQARKYKGAQKKGLSKGCFGLPLDRIGSLSGLGC-OH; disulfide 21-37; C-terminus assumed) | 0.969 (≈ 5 mg/mL) | 6.38 (≈ 32.9 mg/mL) | –
CC[C@H](C)[C@@H]1NC(=O)[C@H](CCCNC(=N)N)NC(=O)[C@H](CCC(=O)O)NC(=O)[C@H](CC(C)C)NC(=O)[C@@H]2CCCN2C(=O)[C@H](CC(C)C)NC(=O)CNC(=O)[C@H](Cc2ccccc2)NC(=O)[C@@H](NC(=O)CNC(=O)[C@H](CCC(N)=O)NC(=O)[C@H](CO)NC(=O)[C@H](CC(C)C)NC(=O)CNC(=O)[C@H](CCCCN)NC(=O)[C@H](CCCCN)NC(=O)[C@H](CCC(N)=O)NC(=O)[C@H](C)NC(=O)CNC(=O)[C@H](CCCCN)NC(=O)[C@H](Cc2ccc(O)cc2)NC(=O)[C@H](CCCCN)NC(=O)[C@H](CCCNC(=N)N)NC(=O)[C@H](C)NC(=O)COCCOCCNC(=O)COCCOCCNC(=O)COCCOCCNC(=O)COCCOCCNC(=O)CC[C@H](NC(=O)CC[C@H](NC(=O)CC[C@H](NC(=O)CC[C@H](NC(=O)CC[C@H](NC(=O)CCCCCCCCCCCCCCCCC(=O)O)C(=O)O)C(=O)O)C(=O)O)C(=O)O)C(=O)O)CSSC[C@@H](C(=O)O)NC(=O)CNC(=O)[C@H](CC(C)C)NC(=O)CNC(=O)[C@H](CO)NC(=O)[C@H](CC(C)C)NC(=O)[C@H](CO)NC(=O)CNC1=O [compound 1477] ({C18 diacid-γGlu-γGlu-γGlu-γGlu-γGlu-AEEA-AEEA-AEEA-AEEA}-ARKYKGAQKKGLSQGCFGLPLERIGSLSGLGC-OH; disulfide 16-32) | – | – | 5.35 (≈ 25.9 mg/mL)
CC[C@H](C)[C@@H]1NC(=O)[C@H](CCCNC(=N)N)NC(=O)[C@H](CC(=O)O)NC(=O)[C@H](CC(C)C)NC(=O)[C@@H]2CCCN2C(=O)[C@H](CC(C)C)NC(=O)CNC(=O)[C@H](Cc2ccccc2)NC(=O)[C@@H](NC(=O)CNC(=O)[C@H](CCC(N)=O)NC(=O)[C@H](CO)NC(=O)[C@H](CC(C)C)NC(=O)CNC(=O)[C@H](CCCCN)NC(=O)[C@H](CCCCN)NC(=O)[C@H](CCC(N)=O)NC(=O)[C@H](C)NC(=O)CNC(=O)[C@H](CCCCN)NC(=O)[C@H](Cc2ccc(O)cc2)NC(=O)COCCOCCNC(=O)COCCOCCNC(=O)COCCOCCNC(=O)COCCOCCNC(=O)CC[C@H](NC(=O)CC[C@H](NC(=O)CCCCCCCCCCCCCCCCC(=O)O)C(=O)O)C(=O)O)CSSC[C@@H](C(=O)O)NC(=O)CNC(=O)[C@H](CC(C)C)NC(=O)CNC(=O)[C@H](CO)NC(=O)[C@H](CC(C)C)NC(=O)[C@H](CO)NC(=O)CNC1=O [compound 1478] ({C18 diacid-γGlu-γGlu-AEEA-AEEA-AEEA-AEEA}-YKGAQKKGLSQGCFGLPLDRIGSLSGLGC-OH; disulfide 13-29; C-terminus assumed) | 2.18 (≈ 8.9 mg/mL) | 6.51 (≈ 26.6 mg/mL) | –
